The first assay relates to mice. The experiment in a line: Testing for analgesia using the tail flick test on mice. The settings on record: Mus musculus, 20 min; NMRI mice, intravenous, 20 minutes after administration; Litchfield and Wilcoxon; read-out: ED50 (tail flick test, analgesia). It is filed as in vivo, NMRI mice. An excerpt: Testing for analgesia using the tail flick test on mice
The analgesic effectiveness of the compounds according to the invention was investigated in the thermal radiation (tail flick) test on mice using the method of D'Amour and Smith (J. Pharm. Exp. Ther. 72, 74-79 (1941). […]. The animals were placed in a special test cage and the bases of their tails were exposed to the focused thermal radiation from an electric lamp (Rhema Analgesiemeter Type 3010). The lamp intensity was adjusted so that the time from switching on the lamp until the sudden twitching away of the tail (latency of pain) was 3-5 seconds for untreated animals. Before the administration of a compound according to the invention, the animals were pre-tested twice within five minutes and the average value of these measurements was calculated as the pre-test average. The pain measurement was made 20, 40 and 60 minutes after intravenous administration. […]. In order to determine the dosage-dependency, the respective compound according to the invention was applied in doses increasing logarithmically by a factor of 3-5, which included the threshold and the maximum effective dose each time. The ED50 values were determined from the number of analgesic animals by the method of Litchfield and Wilcoxon (J. Pharm. Exp. Ther. 96, 99-113, (1949)). Calculation of the ED50 was made at the effective maximum 20 minutes after intraveneous adminstration of the substance.
On to `CN(C)C[C@H]1CCCC[C@H]1c1cccc(O)c1.Cl` [(-7), (-)-(1R,2S)-3-(2-dimethylaminomethyl-cyclohexyl)-phenol hydrochloride], for which the ED50 amounted to 5.9 mg/kg.
In the case of `CN(C)C[C@H]1CCCC[C@]1(F)c1cccc(O)c1.Cl` [(+1), (+)-(1R,2R)-3-(2-dimethylaminomethyl-1-fluoro-cyclohexyl)-phenol hydrochloride], the ED50 was determined as 0.64 mg/kg.
For the compound `CN(C)C[C@H]1CC[C@@H](O)C[C@]1(O)c1cccc(O)c1.Cl` [(+21), (+)-(1R,3R,6R)-6-dimethylaminomethyl-1-(3-hydroxy-phenyl)-cyclohexane-1,3-diol hydrochloride], the ED50 is 7.34 mg/kg.
On to `CN(C)C[C@H]1CCCC[C@]1(Cl)c1cccc(O)c1.Cl` [(+5), (+)-(1R,2R)-3-(1-chloro-2-dimethylaminomethyl-cyclohexyl)-phenol hydrochloride], for which the ED50 amounted to 2.78 mg/kg.
Regarding `CN(C)C[C@@H]1CCCC[C@@H]1c1cccc(O)c1.Cl` [(+7), (+)-(1S,2R)-3-(2-dimethylaminomethyl-cyclohexyl)-phenol hydrochloride], the median effective dose (ED50) came to 1.13 mg/kg.
Consider `COc1cccc([C@@]2(O)C[C@H](O)CC[C@@H]2CN(C)C)c1.Cl` (racemic) [(17), (1RS,3RS,6RS)-6-dimethylaminomethyl-1-(3-methoxy-phenyl)-cyclohexane-1,3-diol hydrochloride], for which the ED50 was determined as 5.54 mg/kg.
With `CC(=O)Oc1ccccc1C(=O)Oc1cccc([C@@H]2CCCC[C@@H]2CN(C)C)c1.Cl` [(-10), (-)-(1R,2S)-2-acetoxy-benzoic acid-3-(2-dimethylaminomethyl-cyclohexyl)-phenyl ester hydrochloride], the ED50 worked out at 8.71 mg/kg.
Same read-out and setting: the figure for `CC(C)COC(=O)Oc1cccc([C@@H]2CCCC[C@@H]2CN(C)C)c1.Cl` [(-11), (-)-(1R,2S)-carbonic acid-[3-(2-dimethylaminomethyl-cyclohexyl)-phenyl]-ester-isobutyl ester hydrochloride] is 5.01 mg/kg; for `CN(C)C[C@H]1CCCC[C@H]1c1cccc(OC(=O)C(C)(C)C)c1.Cl` [(-8), (-)-(1R,2S)-2,2-dimethylpropionic acid-3-(2-dimethylaminomethyl-cyclohexyl)-phenyl ester hydrochloride] it is 4.61 mg/kg.
Regarding `CN(C)C[C@@H]1CCCC[C@@]1(F)c1cccc(O)c1.Cl` [(-1), (-)-(1S,2S)-3-(2-dimethylaminomethyl-1-fluoro-cyclohexyl)-phenol hydrochloride], the ED50 came to 2.28 mg/kg.
Still for that read-out and setting: with `COc1cccc([C@@H]2CCCC[C@@H]2CN(C)C)c1.Cl` [(+6), (+)-(1S,2R)-[2-(3-methoxy-phenyl)-cyclohexylmethyl]-dimethylamine hydrochloride] the figure was 10.7 mg/kg; with `COc1cccc([C@@]2(O)C[C@H](O)CC[C@@H]2CN(C)C)c1.Cl` [(+17), (+)-(1R,3R,6R)-6dimethylaminomethyl-1-(3-methoxy-phenyl)-cyclohexane-1,3-diol hydrochloride], 3.93 mg/kg.

The same assay, now with this note: Mus musculus, iv, 20 min, read-out: ED50 (tail flick test, analgesia).
As to `COc1cccc([C@@]2(O)CCCC[C@@H]2CN(C)C)c1.Cl` (racemic) [Tramadol, (1RS,2RS)-2[(dimethylamino)methyl]-1-(3-methoxyphenyl)cyclohexanol hydrochloride, reference compound], the ED50 was 13.6 mg/kg.

The values above are taken from USRE37355E, “6-dimethylaminomethyl-1-phenyl-cyclohexane compounds as pharmaceutical active ingredients” (priority 1995, dated 2001).
